From US11186585B2 (priority 2018, dated 2021)
Several values for one entry are separate records, joined by “and”; a condition that tells them apart may be missing. Identical values can stand only once.

How the values were obtained:
[1] = in vivo; cited from earlier work
healthy volunteers [2] = experiment: Double-blind trial, miosis after oral capsule; format: in vivo, human; conditions: oral, individual data, 33 45 mg, NB 35 mg, 39 68 mg
Experimental: Double-blind, NB hydrochloride and NB-39 controlled, trial of the antinociceptive effect of oral NB-33 in healthy volunteers. Each of the three healthy volunteers was assigned a set of 6 non-transparent gelatin capsules as follows: 2×NB hydrochloride (MW=393.4; 39 mg), 2×NB-33 (MW=451.6; 45 mg) and 2×NB-39 (MW=680.0; 68 mg). Each week a healthy volunteer would receive a pill from the assigned set in a random fashion and take it orally. At T=0 hr, 0.25 hr, 0.5 hr, 1 hr, 1.5 hr, 2 hr, 3 hr and 5 hr followed oral administration a heat pain threshold was measured (hot water at 50° C.) as well as miosis.
(§1) Following one week of a wash out period, each volunteer repeated the protocol until all pills from the assigned set were administered. The individual data for heat pain threshold as % MPE=[(test latency−baseline latency)/(baseline latency)]×100 and for miosis as % MPE=[(test diameter−baseline diameter)/(baseline diameter)]×100 are shown in Table 2 and Table 3 respectively.
(§2) Independent samples t-test was used to compare the means of % MPE analgesia and miosis in the two pairs of samples: NB-33 and NB and NB-33 and NB-39. All analyses were made using SPSS (v.25). • Bold indicates statistical significance at α=0.05

healthy volunteers [3] = experiment: Double-blind trial, heat pain threshold (hot water at 50° C.) after oral capsule; format: in vivo, human; conditions: oral, individual data, 33 45 mg, NB 35 mg, 39 68 mg
Experimental: Double-blind, NB hydrochloride and NB-39 controlled, trial of the antinociceptive effect of oral NB-33 in healthy volunteers. […] Each week a healthy volunteer would receive a pill from the assigned set in a random fashion and take it orally. […]
as §1, §2

Sprague-Dawley rats = experiment: Antinociceptive activity, cold ethanol tail-flick test after oral gavage; format: in vivo, rat; conditions: oral gavage in sesame oil, 60 uM/kg, one dose; tail-flick at −20° C., cutoff 40 seconds

## Oc1ccc2c3c1OC1C(O)CCC4(O)C(C2)N(CC2CCC2)CCC314 (centres unmarked) [NB, 3-(cyclobutylmethyl)-1,2,3,4,5,6,7,7a-octahydro-4aH-4,12-methanobenzofuro[3,2-e]isoquinoline-4a,7,9-triol]
[1]
  oral bioavailability: low
Healthy volunteers [2]; 0 hr (baseline)
  % MPE (miosis): 0.0 % MPE
Healthy volunteers [2]; 0.25 hr
  % MPE (miosis): 3.1 % MPE and 9.4 % MPE and 6.7 % MPE and 0.0 % MPE and 3.2 % MPE and 2.9 % MPE
Healthy volunteers [2]; 0.5 hr
  % MPE (miosis): 9.4 % MPE (2×) and 37.5 % MPE and 0.0 % MPE and 9.7 % MPE and 8.8 % MPE
Healthy volunteers [2]; 1 hr
  % MPE (miosis): 21.9 % MPE (2×) and 46.9 % MPE and 6.7 % MPE and 45.2 % MPE and −2.9 % MPE
Healthy volunteers [2]; 1.5 hr
  % MPE (miosis): 17.2 % MPE (2×) and 65.6 % MPE and 25.0 % MPE and 45.2 % MPE and 29.4 % MPE
Healthy volunteers [2]; 2 hr
  % MPE (miosis): 18.8 % MPE and 31.3 % MPE (2×) and 55.6 % MPE and 58.1 % MPE and 11.8 % MPE
Healthy volunteers [2]; 2.5 hr
  % MPE (miosis): 18.8 % MPE and 3.1 % MPE and 50.0 % MPE and 25.0 % MPE and 25.8 % MPE and 26.5 % MPE
Healthy volunteers [2]; 3 hr
  % MPE (miosis): 6.2 % MPE (2×) and 33.3 % MPE and 21.9 % MPE and 16.1 % MPE and 20.6 % MPE
Healthy volunteers [2]; 5 hr
  % MPE (miosis): 6.2 % MPE (2×) and 3.1 % MPE and 22.2 % MPE and 9.7 % MPE and 7.8 % MPE
Healthy volunteers [3]; 0 hr (baseline)
  % MPE (analgesia): 0.0 % MPE
Healthy volunteers [3]; 0.25 hr
  % MPE (analgesia): 0.0 % MPE and 29.5 % MPE and 5.3 % MPE (2×) and 56.3 % MPE and 21.4 % MPE
Healthy volunteers [3]; 0.5 hr
  % MPE (analgesia): 5.6 % MPE and 39.3 % MPE and 10.5 % MPE and 50.0 % MPE and 21.1 % MPE and 35.7 % MPE
Healthy volunteers [3]; 1 hr
  % MPE (analgesia): 50.0 % MPE and 34.4 % MPE and 42.1 % MPE and 87.5 % MPE and 47.4 % MPE and 57.1 % MPE
Healthy volunteers [3]; 1.5 hr
  % MPE (analgesia): 100.0 % MPE and 54.1 % MPE and 68.4 % MPE and 112.5 % MPE and 73.7 % MPE and 78.6 % MPE
Healthy volunteers [3]; 2 hr
  % MPE (analgesia): 94.4 % MPE and 54.1 % MPE and 94.7 % MPE and 162.5 % MPE and 57.9 % MPE and 50.0 % MPE
Healthy volunteers [3]; 2.5 hr
  % MPE (analgesia): 66.7 % MPE and 82.0 % MPE and 57.9 % MPE and 106.3 % MPE and 36.8 % MPE and 35.7 % MPE
Healthy volunteers [3]; 3 hr
  % MPE (analgesia): 22.2 % MPE and 32.8 % MPE and 68.4 % MPE and 37.5 % MPE and 57.9 % MPE and 0.0 % MPE
Healthy volunteers [3]; 5 hr
  % MPE (analgesia): −5.6 % MPE and 27.9 % MPE and 5.3 % MPE (2×) and 26.7 % MPE and 0.0 % MPE
Sprague-Dawley rats
  Analgesia (rat): moderate
